Literature values as cited in patent US6187343A, “Proceeding for the preparation of the prolonged action granule compound containing 4-nitro-2-phenoxymethanesulfonanilide” (priority 1997, dated 2001).

Conditions: in vivo

CS(=O)(=O)Nc1ccc([N+](=O)[O-])cc1Oc1ccccc1 [NIMESULIDE, 4-nitro-2-phenoxymethanesulfonanilide]
adverse effects: adverse effects of the digestive type
